Laboratory results published in patent publication US9950026B2, “Methods for reducing oxidative damage” (Cornell Research Foundation, Inc., priority 2004, dated 2018).
“Also recorded” adds a separate entry of the source. Where a SMILES comes first, the peptide text is derived from it. [ ]: non-standard residue; d: D form. Dmt = Cc1cc(O)cc(C)c1C[C@H](N)C(=O)O

How the values were obtained:
[1] = test system: Human LDL (low density lipoprotein); test: LDL oxidation induced by CuSO4 (conjugated dienes); assay type: biochemical; settings: for rate of LDL oxidation (rate of formation of conjugated dienes): peptides 100 μM
Experimental: Human LDL (low density lipoprotein) was prepared fresh from stored plasma. LDL oxidation was induced catalytically by the addition of […] CuSO4, and the formation of conjugated dienes was monitored at […] for 5 h at 37° C. (B. Moosmann and C. Behl, Mol Pharmacol., 61, 260-268 (2002)).

[2] = test system: isolated mouse liver mitochondria; test: H2O2 production by isolated mitochondria, luminol chemiluminescence; assay type: biochemical; settings: for amount of H2O2 generated (AUC over 20 min): spontaneous, SS peptides 100 μM
Experimental: Because mitochondria are a major source of ROS production, the effect of SS-02 on H2O2 formation in isolated mitochondria under basal conditions as well as after treatment with antimycin, a complex III inhibitor was examined. Livers were harvested from mice and homogenized in ice-cold buffer and centrifuged at 13800×g for 10 m. The pellet was washed once and then re-suspended in 0.3 ml of wash butter and placed on ice until use H2O2 was measured using luminol chemiluminescence as described previously (Y. Li, H. Zhu, M. A. Trush, Biochim. Biophys. Acta 1428, 1-12 (1999)). 0.1 mg mitochondrial protein was added to 0.5 ml potassium phosphate buffer (100 mM, pH 8.0) in the absence or presence of SS peptides (100 μM). 25 mM luminol and 0.7 IU horseradish peroxidase were added, and chemilumunescence was monitored with a Chronolog Model 560 aggregometer (Havertown, Pa.) for 20 min at 37° C. The amount of H2O2 produced was quantified as the area under the curve (AUC) over 20 min, and all data were normalized to AUC produced by mitochondria alone.
H2O2 was measured using luminol chemiluminescence as described previously (Y, Li, H. Zhu, M. A. Trush, Biochim. Biophys. Acta 1428, 1-12 (1999)). 0.1 mg mitochondrial protein was added to 0.5 ml potassium phosphate buffer (100 mM, pH 8.0) in the absence or presence of SS-31. 25 mM luminol and 0.7 IU horseradish peroxidase were added, and chemilumunescence was monitored with a Chronolog Model 560 aggregometer (Havertown, Pa.) for 20 min at 37° C. The amount of H2O2 produced was quantified as the area under the curve (AUC) over 20 min, and all data were normalized to AUC produced by mitochondria alone.

N2A cells [3] = test: Intracellular ROS (DCF fluorescence) in cells treated with tBHP; assay type: cell-based, murine; settings: for EC50, reduction of intracellular ROS / intracellular ROS: tBHP 0.5 or 1 mM 40 min, then peptide 4 hr
Experimental: FIG. 22A-22C. […] (A) N2A cells were loaded with DCFDA, and then exposed to 100 μM tBHP alone, or with SS-31. Intracellular ROS was quantified by the formation of fluorescent DCF. Results shown are mean values (n=3). (B)(a-c) N2A cells were plated in glass bottom dishes and treated with 50 μM tBHP, alone or with 1 nM SS-31, for 6 h. Cells were loaded with DCFDA (10 μM) and imaged by confocal laser scanning microscopy using ex/em of 495/525 nm. (C) Effect of 1 nM SS-31 in reducing intracellular ROS induced by 50 μM tBHP (*P<0.001 compared to untreated cells; *P<0.05 compared to tBHP alone).
(§1) Cells were washed twice and replaced with medium alone or medium containing varying concentrations of SS-02 or SS-31 for 4 hr. Intracellular ROS was measured by carboxy-H2DCFDA (Molecular Probes, Portland, Oreg.). Cell death was assessed by a cell proliferation assay (MTS assay, Promega, Madison, Wis.).
Intracellular ROS was evaluated using the fluorescent probe DCFH-DA (5-(and -6)-carboxy-2′,7′-dichlorodihydrofluorescein diacetate). DCFH-DA enters cells passively and is then deacetylated to nonfluorescent DCFH. DCFH reacts with ROS to form DCF, the fluorescent product. N2A cells in 96 sell plates were washed with HBSS and loaded with 10 μM of DCFDA for 30 min. […]. at 37° C. Cells were washed 3 times with BSS and exposed to 0.1 mM of t-BHP, alone or with SS-31. The oxidation of DCF was monitored in real time by a fluorescence microplate reader (Molecular Devices) using 485 nm for excitation and 530 nm for emission.
N2A cells in glass bottom dish were treated with 0.1 mM t-BHP, alone or with 1 nM SS-31, for 6 h. Cells were then loaded with 10 μm of dichlorofluorescin (ex/em=485/530) for 30 min at 37° C., 5% CO2. Then cells were subjected 3 times wash with HBSS and stained with 20 nM of Mitotracker TMRM (ex/em=550/575 nm) for 15 min at 37° C. and examined by confocal laser scanning microscopy.

N2A cells [4] = test: Cell viability, MTS assay, cells treated with tBHP; assay type: cell-based, murine; settings: for EC50, increase of cell survival / cell survival (MTS): tBHP 0.5 or 1 mM 40 min, then peptide 4 hr
Experimental: as §1
Neuronal N2A and SH-SY5Y cells were plated in 96-well plate at a density of 1×10^4/well and allowed to grow for 2 days before treatment with t-butyl hydroperoxide (tBHP) (0.05-0.1 mM) with or without SS-31 (10^−12 M to 10^−9 M for 24 h. Cell death was assessed by a cell proliferation assay (MTS assay, Promega, Madison, Wis.).

[5] = test system: isolated guinea pig hearts; test: HNE-modified proteins in isolated hearts, brief ischemia-reperfusion (Langendorff); settings: 100 nM SS-02, 1 nM SS-31
Experimental: Isolated guinea pig hearts were perfused in a retrograde manner in a Langendorff apparatus and subjected to various intervals of ischemia-reperfusion. Hearts were then fixed immediately and embedded in paraffin. Immunohistochemical analysis of 4-hydroxy-2-nonenol (HNE)-modified proteins in the paraffin sections was carried out using an anti-HNE antibody.
(A) Immunohistochemical analysis of 4-hydroxy-2-nonenol (HNE)-modified proteins in paraffin sections from guinea pig hearts aerobically perfused 30 min with (a) buffer; (b) 100 nM SS-02; (c) 100 nM SS-20 and (d) 1 nM SS-31, then subjected to 30 min ischemia and reperfused for 90 min with same peptides. Tissue slices were incubated with […] antibody. (e) Background control: staining without primary antibody.
(B) Immunohistochemical analysis of HNE-modified proteins in paraffin sections from guinea pig hearts aerobically perfused 30 min with buffer; then subjected to 30 min ischemia and reperfused with (a) buffer; (b) 100 nM SS-02; (c) 100 nM SS-20 and (d) 1 nM SS-31 for 90 min with same peptides. Tissue slices were incubated with anti-HNE antibody. (e) Background control staining without primary antibody.

[6] = Linoleic acid peroxidation induced by ABAP (conjugated dienes); settings: for rate of linoleic acid peroxidation (slope of diene formation): peptides 100 μM
[7] = peptide only during 90 min reperfusion
[8] = peptide perfused 30 min before 30 min ischemia and during 90 min reperfusion

Compound | rate of LDL oxidation (rate of formation of conjugated dienes) [1] | production of H2O2 induced by antimycin ([2]; dose response) | spontaneous production of H2O2 ([2]; dose response) | amount of H2O2 generated (AUC over 20 min) [2] | DCF fluorescence (fluorescent microscopy) (N2A cells [3]; 50 μM tBHP, 1 nM SS-31, 6 h) | reduction of ROS production (N2A cells [3]; 100 μM tBHP, 1 nM SS-31) | rate of ROS accumulation/production (N2A cells [3]; 0.1 mM (100 μM) t-BHP, over 4 h) | ROS accumulation (DCF fluorescence, confocal) (N2A cells [3]; 0.1 mM t-BHP, 1 nM SS-31, 6 h) | EC50, reduction of intracellular ROS (N2A cells [3]) | intracellular ROS (N2A cells [3]) | concentration achieving complete protection against t-BHP (N2A cells [4]; t-BHP 0.05-0.1 mM, 24 h) | t-BHP-induced cytotoxicity (N2A cells [4]; t-BHP 0.05-0.1 mM, 24 h, concurrent treatment) | EC50, increase of cell survival (N2A cells [4]) | cell survival (MTS) (N2A cells [4]) | lipid peroxidation (HNE-modified proteins) [5, 7] | lipid peroxidation (HNE-modified proteins) [5, 8] | rate of linoleic acid peroxidation (slope of diene formation) [6] | rate of LDL oxidation ([1]; varying concentrations, 10 mM CuSO4) | peroxidation of linoleic acid ([6]; varying concentrations)
Cc1cc(O)cc(C)c1C[C@H](NC(=O)[C@H](N)CCCNC(=N)N)C(=O)N[C@@H](CCCCN)C(=O)N[C@@H](Cc1ccccc1)C(N)=O [SS-31, D-Arg-2′6′-Dmt-Lys-Phe-NH2] (H-[dR][Dmt]KF-NH2; N-terminus assumed) | reduced rate of LDL oxidation | dose-dependently reduced | dose-dependently reduced | significantly reduced | significantly reduced | > 50% | dose-dependently inhibited; also recorded: dose-dependently reduced | reduced ROS accumulation | nM range | dose-dependently reduced intracellular ROS | 1 nM | dose-dependent reduction | nM range | increased cell survival | reduced lipid peroxidation | reduced lipid peroxidation | reduced the rate of linoleic acid peroxidation | – | –
2′,6′-Dmt-Arg-Phe-Lys-NH2 [SS-02] | reduced rate of LDL oxidation | – | – | significantly reduced | – | – | – | – | nM range | dose-dependently reduced intracellular ROS | – | – | nM range | increased cell survival | reduced lipid peroxidation | reduced lipid peroxidation | reduced the rate of linoleic acid peroxidation | dose-dependently inhibited | dose-dependently inhibited
